Laboratory results published in the NIST ThermoML archive (doi:10.1021/je9003959).
± gives the expanded uncertainty stated by the source.

Assay: refractive index (Na D-line) (dimensionless); xn = mol fraction of the nth substance listed
Details: 101 kPa, Liquid, Standard Abbe refractometry

CCN1CCCC1=O [1-ethyl-2-pyrrolidinone] + O
refractive index (293 K, x1 = 0.022): 1.35197 ± 0.001 | refractive index (293 K, x1 = 0.05): 1.37085 ± 0.00084 | refractive index (293 K, x1 = 0.1): 1.39584 ± 0.00089 | refractive index (293 K, x1 = 0.2): 1.42603 ± 0.00084 | refractive index (293 K, x1 = 0.3): 1.44127 ± 0.00051 | refractive index (293 K, x1 = 0.4): 1.44975 ± 0.00052 | refractive index (293 K, x1 = 0.5): 1.4551 ± 0.00057 | refractive index (293 K, x1 = 0.6): 1.45859 ± 0.00062 | refractive index (293 K, x1 = 0.7): 1.46118 ± 0.00065 | refractive index (293 K, x1 = 0.8): 1.46326 ± 0.00068 | refractive index (293 K, x1 = 0.9): 1.46478 ± 0.00066 | refractive index (293 K, x1 = 1): 1.46461 ± 0.00077 | refractive index (298 K, x1 = 0.022): 1.35144 ± 0.001 | refractive index (298 K, x1 = 0.05): 1.37012 ± 0.0008 | refractive index (298 K, x1 = 0.1): 1.39478 ± 0.00067 | refractive index (298 K, x1 = 0.2): 1.42432 ± 0.00061 | refractive index (298 K, x1 = 0.3): 1.43983 ± 0.00064 | refractive index (298 K, x1 = 0.4): 1.44776 ± 0.00061 | refractive index (298 K, x1 = 0.5): 1.45307 ± 0.00061 | refractive index (298 K, x1 = 0.6): 1.45647 ± 0.00066 | refractive index (298 K, x1 = 0.7): 1.459 ± 0.00068 | refractive index (298 K, x1 = 0.8): 1.46096 ± 0.0007 | refractive index (298 K, x1 = 0.9): 1.4623 ± 0.00071 | refractive index (298 K, x1 = 1): 1.46192 ± 0.00087 | refractive index (303 K, x1 = 0.022): 1.34954 ± 0.001 | refractive index (303 K, x1 = 0.05): 1.3694 ± 0.0008 | refractive index (303 K, x1 = 0.1): 1.39291 ± 0.00064 | refractive index (303 K, x1 = 0.2): 1.42304 ± 0.00058 | refractive index (303 K, x1 = 0.3): 1.43715 ± 0.00062 | refractive index (303 K, x1 = 0.4): 1.44605 ± 0.00061 | refractive index (303 K, x1 = 0.5): 1.45147 ± 0.00063 | refractive index (303 K, x1 = 0.6): 1.45435 ± 0.00064 | refractive index (303 K, x1 = 0.7): 1.4568 ± 0.00066 | refractive index (303 K, x1 = 0.8): 1.4586 ± 0.00065 | refractive index (303 K, x1 = 0.9): 1.46016 ± 0.00065 | refractive index (303 K, x1 = 1): 1.45791 ± 0.00075 | refractive index (313 K, x1 = 0.022): 1.3488 ± 0.00098 | refractive index (313 K, x1 = 0.05): 1.36692 ± 0.0008 | refractive index (313 K, x1 = 0.1): 1.39022 ± 0.00065 | refractive index (313 K, x1 = 0.2): 1.41887 ± 0.0006 | refractive index (313 K, x1 = 0.3): 1.4331 ± 0.00063 | refractive index (313 K, x1 = 0.4): 1.4418 ± 0.00064 | refractive index (313 K, x1 = 0.5): 1.44694 ± 0.00066 | refractive index (313 K, x1 = 0.6): 1.45035 ± 0.00065 | refractive index (313 K, x1 = 0.7): 1.4527 ± 0.00066 | refractive index (313 K, x1 = 0.8): 1.45496 ± 0.00066 | refractive index (313 K, x1 = 0.9): 1.45641 ± 0.00067 | refractive index (313 K, x1 = 1): 1.45415 ± 0.00064 | refractive index (323 K, x1 = 0.022): 1.34707 ± 0.001 | refractive index (323 K, x1 = 0.05): 1.36431 ± 0.00087 | refractive index (323 K, x1 = 0.1): 1.38757 ± 0.00087 | refractive index (323 K, x1 = 0.2): 1.41711 ± 0.00092 | refractive index (323 K, x1 = 0.3): 1.42913 ± 0.0007 | refractive index (323 K, x1 = 0.4): 1.43762 ± 0.00072 | refractive index (323 K, x1 = 0.5): 1.44273 ± 0.00068 | refractive index (323 K, x1 = 0.6): 1.44622 ± 0.00067 | refractive index (323 K, x1 = 0.7): 1.44864 ± 0.00066 | refractive index (323 K, x1 = 0.8): 1.45075 ± 0.00069 | refractive index (323 K, x1 = 0.9): 1.45217 ± 0.00073 | refractive index (323 K, x1 = 1): 1.45147 ± 0.00062
